# Reference: patent US20220193209A1, “COMPOSITIONS AND METHODS FOR REACTIVATING LATENT IMMUNODEFICIENCY VIRUS AND/OR TREATING IMMUNODEFICIENCY VIRUS INFECTION” (The J. David Gladstone institutes, a testamentary trust …, priority 2019, published 2022)
# Tested on: K562 cells
# Test: Cell viability of HIVGKO-infected K562 cells
# Format: cell-based
# Conditions: K562, increasing concentrations
# Protocol: Briefly, K562 cells were treated with increasing concentrations of the FOXO1 inhibitor AS1842856 just after HIVGKO infection. After 3-4 days, the percentage of latent cells and productive cells were quantified by FACS. In left panel, amount of productive or latent cells relative to the total infection rate (bars) and cell viability (dots). In the right panel, ratios of productive versus latent populations upon increasing concentrations of AS1842856 treatments. Data are represented as mean f SD of triplicate values, representative of three independent experiments. FIG. 1, Panel B depicts FOXO1, FOXO3 and FOXO4 CETSA-melting curve shifts upon the presence or absence of AS1842856 1000 nM in K562 cells. Band intensities obtained from western blot analysis were related to the highest western blot signal which has been set to 100%. Relative FOXO-band intensities were plotted against corresponding incubation temperatures and a nonlinear least-squares regression fit was applied. Data represent the mean±SD of three individual experiments. FIG. 1, Panel C depicts the efficiency of FOXO1, FOXO3 and FOXO4 knockdowns with two different sgRNAs checked by western blot. Cells transduced with NC (negative control) sgRNA lentiviruses were used as a control. […]
structure (smiles),measurement,value
"CCn1cc(C(=O)O)c(=O)c2c(N)c(F)c(NC3CCCCC3)cc21 [AS1842856, 5-amino-7-(cyclohexylamino)-1-ethyl-6-fluoro-4-oxo-1,4-dihydro-quinoline-3-carboxylic acid]",viability,no significant changes
